Patent US7312330B2, “Bicycloheteroarylamine compounds as ion channel ligands and uses thereof” (Renovis, Inc., priority 2003, dated 2007)

Legend:
[1] = Plasma protein binding by equilibrium dialysis, human plasma; format: in vitro ADME; details: pH 7.4, 37° C., read-out: plasma protein binding (% Bound)
Procedure: (§1) Membranes from Harvard/Amika with a molecular weight cutoff of 5,000 were rinsed with dH2O then placed in pH 7.4 PBS supplied by Gibco. The membranes were allowed to soak for 1 hour. A stock of the test article was pooled with Warfarin, Atropine at 2 mM in DMSO. The test article was then dosed into human plasma in sodium citrate, Rat Plasma, and Mouse Plasma to a final 10 μM concentration (0.5% DMSO v/v).
(§2) The pre-soaked membranes were then placed into dialysis chambers. 500 μL of PBS was added to one side of the chamber, and 500 μL of the Matrix containing the test article was added to the other side of the chamber. The chambers were then placed into an enclosed, heated rocker, which was pre-warmed to 37° C. and allowed to reach equilibrium for at least 22 hours. After 22 hours both sides were sampled. 100 μL of the donor side was added to 500 μL of PBS. 100 μL of the PBS side was added to 20 μL of fresh matrix. Samples then were crashed with 1:1 Acetonitrile and centrifuged at 10,000 RPM for 10 minutes. […]
(§3) Standards were prepared in a 1:5 plasma:PBS mixture at 5, 1.5, 0.5, 0.15, 0.05, 0.015 and 0.005 μM concentrations. […] Protein binding values were calculated as follows: % Bound=[(Concentration in Donor−Concentration in Receiver)/(Concentration in Donor)]×100. % Recovery=[(Concentration in donor+Concentration in Receiver)]/(Concentration in Normal Initial)]×100

[2] = Plasma protein binding by equilibrium dialysis, rat plasma; format: in vitro ADME; details: pH 7.4, 37° C., read-out: plasma protein binding (% Bound)
Procedure: as §1, §2, §3

Sprague-Dawley male rats = experiment: Thermal hyperalgesia (carrageenan, paw withdrawal latency); format: in vivo; details: rat, 30 mg/kg, two hours after administration
Procedure: Sprague-Dawley male rats obtained from Charles River, San Diego, Calif. were purchased at 150-175 g, and held for at least one week before testing. Pain was induced by injecting 100 μl of 2% carrageenan in 0.9% saline sub-Q into the right ventral hindpaw while the animals were under isofluorane anesthesia. Animals were then dosed one hour after with a concentration of 30 mg/kg of Compound 1. Two hours later, after acclimatizing in testing chambers for 20-30 minutes, animals were tested on both hindpaws for latency of paw withdrawal using a thermal testing apparatus. 2-3 trials were conducted with 10 minutes between trials. […] The figure depicts the time in seconds until animals withdraw from thermal stimulation at baseline and two hours after administration of delivery vehicle, control compound, and the dose of 30 mg/kg of Compound 1.

[3] = Pharmacokinetic profile after intravenous and oral administration; format: in vivo; details: rat, IV 1 mg/kg, oral 5 mg/kg; for Cmax / Tmax / Vd / bioavailability: male, Sprague-Dawley, plasma
Procedure: The pharmacokinetic profile of Compound 1 was evaluated following intravenous and oral administration in rats. Sprague-Dawley male rats obtained from Charles River, San Diego, Calif. were acclimated for 24 hours.
Compounds of this invention were formulated at a concentration of 0.5 mg/mL for IV administration at a 1 mg/kg dose and 1 mg/mL for oral administration at a 5 mg/kg dose. All animals were weighed before dosing. The body weight was used to calculate the actual dose for each animal. The intravenous dose was administered through the jugular vein catheter in less than 1 minute. The oral dose volume was 1.5 mL for all PO rats administered through oral lavage.
For IV dosing, blood samples were collected using a pre-heparinized syringe via the carotid artery catheter before dosing and at t=2, 5, 15, 30, 60, 120, 180, 360, and 480 minutes post dosing. For PO dosing, blood samples were collected using a pre-heparinized syringe via the carotid artery catheter before dosing and at t=5, 15, 30, 60, 120, 180, 360, and 480 minutes post dosing. 250 uL of blood was obtained at each time point from each animal. Equal volumes of 0.9% normal saline were replaced to prevent dehydration. The whole blood samples were maintained on ice until centrifugation. Blood samples were centrifuged at 14,000 rpm for 10 minutes at 4° C., and the upper plasma layer was transferred into a clean vial and store at −80° C.

hVR1 = hVR1 (Homo sapiens, UniProt Q8NER1); experiment: Calcium imaging assay (Fura2) of VR1 antagonists, proton stimulation; format: cell-based; details: HEK 293 cells expressing hVR1; for % Inhibition @ 1 μM: calcium ion influx induced by proton stimulation (pH 5.7); for IC50: calcium ion influx induced by proton stimulation
Summary of the method: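 HEK293 cells expressing capsaicin-insensitive hVR1 were loaded with Fura2 (5 μg/mL, 37 °C, 40 min). Compound was added, then compound plus acid agonist (10 mM citric acid, pH 5.7), with the 340/380 nm ratio read every 4 s for 3 min. Peak-minus-baseline response gave % inhibition and an ID50 from dose-response curves.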

HsVR1 = molecular target: T1, HsVR1 (Homo sapiens, UniProt Q8NER1); experiment: Two-electrode voltage clamp recording of capsaicin induced VR1 current in Xenopus oocytes; format: cell-based; details: 250 nM capsaicin induced current; Xenopus oocytes injected with HsVR1 RNA; read-out: EPHYS IC50
T1 construct: expressed in transfected cells; host or cells: Xenopus oocytes injected with HsVR1 RNA
Procedure: Xenopus ovaries obtained from NASCO were isolated by enzymatic dissociation using collagenase (Worthington, 2 mg/ml). Oocytes were then individually injected with HsVR1 RNA (0.5 μg/μl). Injected oocytes are stored in standard oocyte incubation solution, ND96, containing 96 mM NaCl, 2 mM KCl, 1 mM MgCl2, 0.3 mM CaCl2 and 50 µg/ml Gentamicin at 16° C. Capsaicin induced VR1 current is observed in oocytes 4-5 days after injection. Eight oocytes are placed in the recording chambers. Each oocyte is impaled by 2 glass electrodes having resistances of 0.5 to 1 MOhm when filled with a 3 M KCl solution. Electrode advancement and oocyte impalement are under software control (OpusXpress 1.1, Axon Instruments). VR1 expression in the oocytes is verified using 250 nM capsaicin. Test solution delivery to the oocytes during the experiment is also under software control. The solutions are prepared in 96 well plates and robotically pipetted into the oocyte recording chambers by an 8 channel pipetter. Oocytes are exposed to several 250 μl applications of 250 nM capsaicin until a stable current amplitude is obtained with each application. A set of 96 well plates containing the test solutions is prepared so that the sequence of solution application to the oocyte is as follows: 250 μls of 250 nM capsaicin is followed by a several minute wash with standard oocyte saline. 1 ml of the test compound is then added at a particular test concentration, followed immediately by 250 μl of the compound at the same concentration plus 250 nM capsaicin. The capsaicin induced VR1 current is recorded in the presence and absence of test compound for each concentration. The standard test concentrations range from 0.3 to 2000 nM. Quantitative measurement of VR1 current block was carried out by calculating the area under the curve described by the inward current. The resulting numbers for capsaicin induced currents in the presence of increasing compound concentration are normalized to the maximum current obtained. These points are then plotted on a logarithmic scale and fitted by a Hill function. The IC50 values for each compound tested were then calculated from the resulting Hill fit. All compounds that inhibited capsaicin induced current greater than 50% were considered positives.

Sequence of hVR1 (Q8NER1 whole entry): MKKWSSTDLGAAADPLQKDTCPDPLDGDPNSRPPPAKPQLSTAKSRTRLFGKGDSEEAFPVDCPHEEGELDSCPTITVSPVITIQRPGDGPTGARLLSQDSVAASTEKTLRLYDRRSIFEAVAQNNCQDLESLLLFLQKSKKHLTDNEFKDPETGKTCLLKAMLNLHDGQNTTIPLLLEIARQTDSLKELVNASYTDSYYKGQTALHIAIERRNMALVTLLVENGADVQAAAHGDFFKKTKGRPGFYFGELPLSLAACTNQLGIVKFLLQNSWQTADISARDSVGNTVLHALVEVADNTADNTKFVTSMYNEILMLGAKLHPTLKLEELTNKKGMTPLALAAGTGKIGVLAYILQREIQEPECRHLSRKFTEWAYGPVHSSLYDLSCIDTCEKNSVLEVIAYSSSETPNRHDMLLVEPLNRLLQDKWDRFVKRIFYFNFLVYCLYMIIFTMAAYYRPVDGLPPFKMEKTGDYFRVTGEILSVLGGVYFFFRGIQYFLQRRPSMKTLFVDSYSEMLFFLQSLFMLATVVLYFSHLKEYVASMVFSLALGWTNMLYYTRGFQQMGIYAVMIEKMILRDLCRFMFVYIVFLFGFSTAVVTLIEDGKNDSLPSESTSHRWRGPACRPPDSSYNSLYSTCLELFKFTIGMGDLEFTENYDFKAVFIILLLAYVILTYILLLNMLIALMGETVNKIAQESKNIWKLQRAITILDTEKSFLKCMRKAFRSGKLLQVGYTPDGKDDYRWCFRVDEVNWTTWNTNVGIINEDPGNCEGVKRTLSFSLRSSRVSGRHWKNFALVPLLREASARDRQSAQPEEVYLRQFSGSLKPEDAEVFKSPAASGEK
T1 sequence (Q8NER1 whole entry): as above

Row | Compound | fraction unbound at 22 h, 10 μM [1] | fraction unbound at 22 h, 10 μM [2] | Cmax [3] [ng/mL] | Tmax [3] [h] | Vd [3] [L/kg] | bioavailability [3] [%] | Cls (L/hrKg) [3] [L/hrKg] | T/2 [3] [h] | IC50 (hVR1) [nM] | IC50 (HsVR1) [nM] | latency of paw withdrawal (reversal of thermal hyperalgesia) (Sprague-Dawley male rats) | % Inhibition @ 1 μM (hVR1)
1 | FC(F)(F)c1ccc(Nc2ncnc3c2CCN(c2ncccc2Cl)C3)cc1 [Example 1, 7-(3-Chloropyridin-2-yl)-N-(4-(trifluoromethyl)phenyl)-5,6,7,8-tetrahydropyrido[3,4-d]pyrimidin-4-amine] | – | – | 1380 | 1.01 | 1.28 | 37 | 0.34 | 2.52 | 101 to 500 | 101 to 500 | – | ++++ (compound exhibited 76% or greater inhibition of calcium ion influx induced by proton stimulation)
2 | N#Cc1nc2c(c(Nc3ccc(C(F)(F)F)cc3)n1)CCN(c1ncccc1Cl)C2 [Example 37, 4-(4-(Trifluoromethyl)phenylamino)-7-(3-chloropyridin-2-yl)-5,6,7,8-tetrahydropyrido[3,4-d]pyrimidine-2-carbonitrile] | – | – | 49.4 | 3.33 | 12.4 | 17.9 | 4.02 | 2.15 | – | 101 to 500 | – | ++++ (compound exhibited 76% or greater inhibition of calcium ion influx induced by proton stimulation)
3 | CCOc1nc2c(c(Nc3ccc(C(F)(F)F)cc3)n1)CCN(c1ncccc1Cl)C2 [Example 48, 7-(3-Chloropyridin-2-yl)-2-ethoxy-N-(4-(trifluoromethyl)phenyl)-5,6,7,8-tetrahydropyrido[3,4-d]pyrimidin-4-amine] | – | – | – | – | – | – | – | – | 101 to 500 | < 100 | – | ++++ (compound exhibited 76% or greater inhibition of calcium ion influx induced by proton stimulation)

Second part, led by results:

Row | fraction unbound at 22 h, 10 μM [1] | fraction unbound at 22 h, 10 μM [2] | Cmax [3] [ng/mL] | Tmax [3] [h] | Vd [3] [L/kg] | bioavailability [3] [%] | Cls (L/hrKg) [3] [L/hrKg] | T/2 [3] [h] | IC50 (hVR1) [nM] | IC50 (HsVR1) [nM] | Compound | latency of paw withdrawal (reversal of thermal hyperalgesia) (Sprague-Dawley male rats) | % Inhibition @ 1 μM (hVR1)
4 | < 0.001 | < 0.001 | – | – | – | – | – | – | – | – | FC(F)(F)c1ccc(Nc2ncnc3c2CCN(c2ncccc2Cl)C3)cc1 [Compound 1] | significantly increased latency of paw withdrawal | –
5 | – | – | 156 | 1.67 | 13 | 47.9 | 1.99 | 4.37 | 101 to 500 | 101 to 500 | CS(=O)(=O)c1cccnc1N1CCc2c(ncnc2Nc2ccc(C(F)(F)F)cc2)C1 [Example 9, [7-(3-Methanesulfonyl-pyridin-2-yl)-5,6,7,8-tetrahydro-pyrido[3,4-d]pyrimidin-4-yl]-(4-trifluoromethyl-phenyl)-amine] | – | ++++ (compound exhibited 76% or greater inhibition of calcium ion influx induced by proton stimulation)
6 | – | – | – | – | – | – | – | – | < 100 | < 100 | Cc1ccccc1N1CCc2c(ncnc2Nc2ccc(C(F)(F)F)cc2)C1 [Example 45, 7-(o-Tolyl)-N-(4-(trifluoromethyl)phenyl)-5,6,7,8-tetrahydropyrido[3,4-d]pyrimidin-4-amine] | – | ++++ (compound exhibited 76% or greater inhibition of calcium ion influx induced by proton stimulation)
7 | – | – | – | – | – | – | – | – | > 1000 | 501 to 1000 | Cc1cccc(N2CCc3c(ncnc3Nc3ccc(C(F)(F)F)cc3)C2)c1 [Example 46, 7-(m-Tolyl)-N-(4-(trifluoromethyl)phenyl)-5,6,7,8-tetrahydropyrido[3,4-d]pyrimidin-4-amine] | – | + (compound exhibited 0-25% inhibition of calcium ion influx induced by proton stimulation)
8 | – | – | – | – | – | – | – | – | 501 to 1000 | 101 to 500 | CCOc1nc2c(c(Nc3ccc(C(F)(F)F)cc3)n1)CCN(c1ncccc1S(C)(=O)=O)C2 [Example 64, 2-Ethoxy-N-(4-(trifluoromethyl)phenyl)-5,6,7,8-tetrahydro-7-(3-(methylsulfonyl)pyridin-2-yl)pyrido[3,4-d]pyrimidin-4-amine] | – | +++ (compound exhibited 51-75% inhibition of calcium ion influx induced by proton stimulation)
